Data on 1 compound can be found in patent publication US20250049737A1, “Lauflumide and derivatives thereof for treating chronic fatigue syndrome and myalgic encephalomyelitis/chronic fatigue syndrome (ME/CFS)” (NLS Pharmaceutics AG, priority 2021, published 2025).

Usually % Inhibition stands for how much of the control response was suppressed.

For one assay, the system named is impulsivity. The assay is described as follows: Impulsivity. Type of assay: in vivo. As to conditions: three doses tested; compared with modafinil.
Assay [1] addresses T1, NPY1 (h) (reverse agonist radioligand) (Homo sapiens, UniProt P25929).
T1 construct: Eurofins CEREP (contract study 100014859)
T1 sequence (P25929 1-384): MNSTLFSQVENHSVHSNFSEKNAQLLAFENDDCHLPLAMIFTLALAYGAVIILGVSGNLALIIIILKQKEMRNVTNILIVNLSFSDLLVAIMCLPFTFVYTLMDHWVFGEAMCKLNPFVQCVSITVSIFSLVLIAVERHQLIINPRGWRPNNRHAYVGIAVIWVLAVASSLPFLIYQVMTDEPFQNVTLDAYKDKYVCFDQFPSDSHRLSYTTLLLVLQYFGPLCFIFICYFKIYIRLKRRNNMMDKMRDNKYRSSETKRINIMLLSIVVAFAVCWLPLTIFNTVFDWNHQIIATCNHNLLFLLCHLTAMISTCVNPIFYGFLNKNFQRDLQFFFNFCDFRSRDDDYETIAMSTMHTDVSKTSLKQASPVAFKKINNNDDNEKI
The assay is described as follows: Radioligand binding panel (Eurofins CEREP), NPY1. Conditions: % inhibition of control specific binding. How it is done: (§1) Lauflumide is tested at 10^-5 M, calculated as a % inhibition of control specific binding of a radioactively labeled ligand specific for each target.
(§2) This binding profile panel was broadly defined with roughly an equal number of selective, central and peripheral therapeutically relevant targets, including native animal tissues, radioligands and specific enzymes involved in cell cycle regulation in accordance with Eurofins Standard Operating Procedure (www.eurofins.fr).
(§3) For radioligand binding experiments, the half maximal inhibitory concentration (IC50) and the half maximal effective concentration (EC50) values were determined (via computer software) by nonlinear regression analysis of the competition curves using Hill equation curve fitting. The inhibition constants (Ki) were calculated using the Cheng-Prusoff equation (Ki=IC50/(1+(L/KD)), where L is the concentration of radioligand in the assay, and KD is the affinity of the radioligand for the receptor.
(§4) The results are expressed as a % control specific binding ([measured specific binding/control specific binding]×100) and as a % inhibition of control specific binding (100−[(measured specific binding/control specific binding)×100]) obtained in the presence of the test compounds. […]

Assay [2] addresses T2, Histamine 2 (h) (H2) (agonist radioligand) (Homo sapiens, UniProt P25021).
T2 construct: Eurofins CEREP (contract study 100014859)
The assay is described as follows: Radioligand binding panel (Eurofins CEREP), histamine H2. As to conditions: % inhibition of control specific binding. Here is the method: as §1, §2, §3, §4

T2 sequence (P25021 whole entry): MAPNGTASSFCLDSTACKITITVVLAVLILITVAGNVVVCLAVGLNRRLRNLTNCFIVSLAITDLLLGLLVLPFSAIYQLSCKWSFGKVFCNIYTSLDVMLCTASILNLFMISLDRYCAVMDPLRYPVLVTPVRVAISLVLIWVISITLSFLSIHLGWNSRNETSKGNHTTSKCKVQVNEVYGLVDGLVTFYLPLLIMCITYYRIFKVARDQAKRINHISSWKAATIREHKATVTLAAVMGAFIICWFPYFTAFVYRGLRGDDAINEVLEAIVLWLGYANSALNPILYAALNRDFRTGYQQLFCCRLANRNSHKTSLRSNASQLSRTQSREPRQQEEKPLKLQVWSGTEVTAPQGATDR

In the case of `NC(=O)C[S@@+]([O-])C(c1ccc(F)cc1)c1ccc(F)cc1` [Lauflumide, 2-[(R)-((bis(4-fluorophenyl)methane)sulfinyl)]acetamide], the Impulsivity result with impulsivity was “improved impulsivity at the three doses tested with a better significant response than modafinil”. Also, the figures for the “% Inhibition at 10^−5M” value in assay [1] and in assay [2] were 27.3% and 46.6%, respectively.
